This is an account of results in US9045468B2, “2,5-methano- and 2,5-ethano-tetrahydrobenzazepine derivatives and use thereof to block reuptake of norepinephrine, dopamine, and serotonin” (Albany Molecular Research, Inc., priority 2010, dated 2015).

Like-named read-outs stand apart in the source and are kept apart here.

Broadly, the IC50 is the concentration needed to halve the response being measured.

The target in one experiment is hSERT (Homo sapiens (Human), UniProt P31645). Briefly: SERT radioligand binding assay ([125I]RTI-55, HEK-293 membranes). On the procedure:
(§1) The medium was removed from the flasks and the cells rinsed with HBSS without Ca and without Mg. The cells were then incubated for 5-10 minutes in 10 mM Tris-Cl, pH 7.5, 5 mM EDTA before the cells were lifted with a combination of pipetting and scraping, as needed. The cell suspension was collected into centrifuge bottles and homogenized for 30 seconds with a Polytron homogenizer. The suspension was centrifuged for 30 minutes at 32,000×g, 4° C. The supernatant was decanted and the pellet resuspended and homogenized in 50 mM Tris-Cl, pH 7.5, 1 mM EDTA for 10 seconds. The suspension was then centrifuged again for 30 minutes at 32,000×g, 4° C. The supernatant was decanted and the pellet resuspended in 50 mM Tris-Cl, pH 7.5, 1 mM EDTA and briefly homogenized. A Bradford assay (Bio-rad) was performed and the membrane preparation diluted to 2 mg/ml with 50 mM Tris-Cl, pH 7.5, 1 mM EDTA. Aliquots were prepared, and then frozen and stored at −80° C.
Compounds were dissolved in 100% DMSO at a concentration 100 times the desired highest assay concentration, serially diluted 1:3 in 100% DMSO, and 0.4 μl/well of each solution was dispensed to a Nunc polypropylene, round bottom, 384-well plate. […] The contents of the assay plate were then transferred to a Millipore MultiscreenHTS GF/B filter plate which was pretreated with 0.5% PEI for at least one hour. The plate was vacuum filtered and washed with 7 washes of […] 50 mM Tris-Cl, pH 7.5, 120 mM NaCl, 5 mM KCl chilled to 4° C. The filtration and washing were completed in less than 90 seconds. The plates were air-dried overnight, 12 μl/well of MicroScint scintillation fluid added, and the plates counted in a Trilux.
(§2) Each plate was run in triplicate, and the concentration response curve thus generated was fit using the four-parameter dose response equation, Y=Bottom+(Top-Bottom)/(1+10^((Log IC50−X)*HillSlope)) in order to determine the IC50 value for each compound. The radioligand concentration chosen for each assay corresponds to the Kd concentration determined through saturation binding analysis for each assay.

The target in the next experiment is hDAT (Homo sapiens (Human), UniProt Q01959). Briefly: DAT radioligand binding assay ([125I]RTI-55, HEK-293 membranes). The settings on record: recombinant HEK-293 membranes, [125I]RTI-55; read-out: Binding Affinity (IC50, nM) DAT. On the procedure: as §1, with “Recombinant HEK-293 cells expressing either the hSERT, hDAT, or hNET proteins were harvested from T-175 flasks as follows. The medium” for “The medium”
Compounds were dissolved in 100% DMSO at a concentration 100 times the desired highest assay concentration, serially diluted 1:3 in 100% DMSO, and 0.4 μl/well of each solution was dispensed to a Nunc polypropylene, round bottom, 384-well plate. […] 20 ul/well of a 2× membrane preparation (12.5 μg/ml in 30 mM sodium phosphate buffer, pH 7.9 at 4° C.) and 20 μl/well of a 2× radioligand solution (250 pM [^125I]RTI-55 in 30 mM sodium phosphate buffer, pH 7.9 at 4° C.) were added to the well and the reaction incubated for 1 hour at room temperature. The contents of the assay plate were then transferred to a Millipore MultiscreenHTS GF/B filter plate which was pretreated with 0.5% PEI for at least one hour. The plate was vacuum-filtered and washed with 7 washes of 100 μl/well 50 mM Tris-Cl, pH 7.5, 120 mM NaCl, 5 mM KCl chilled to 4° C. The filtration and washing were completed in less than 90 seconds. The plates were air-dried overnight, 12 μl/well of MicroScint scintillation fluid added, and the plates counted in a Trilux.
as §2

A further experiment addresses hNET (Homo sapiens (Human), UniProt P23975). Briefly: NET radioligand binding assay ([3H]nisoxetine, HEK-293 membranes). On the procedure: as §1
Compounds were dissolved in 100% DMSO at a concentration 100 times the desired highest assay concentration, serially diluted 1:3 in 100% DMSO, and 1.0 μl/well of each solution was dispensed to a Nunc polypropylene, round bottom, 384-well plate. […] 50 μl/well of a 2× membrane preparation (0.4 mg/ml in 50 mM Tris-Cl, pH 7.5, 120 mM NaCl, 5 mM KCl) and 50 μl/well of a 2× radioligand solution (4 nM [^3H]nisoxetine in 50 mM Tris-Cl, pH 7.5, 120 mM NaCl, 5 mM KCl) were added to the well and the reaction incubated for 1 hour at room temperature. The contents of the assay plate were then transferred to a Millipore MultiscreenHTS GF/B filter plate which was pretreated with 0.5% PEI for at least one hour. The plate was vacuum filtered and washed with 7 washes of 100 μl/well 50 mM Tris-Cl, pH 7.5, 120 mM NaCl, 5 mM KCl chilled to 4° C. The filtration and washing were completed in less than 90 seconds. The plates were air-dried overnight, 12 μl/well of MicroScint scintillation fluid added, and the plates counted in a Trilux.
as §2

The mark [1] stands for this setting: recombinant HEK-293 membranes, [125I]RTI-55, read-out: Binding Affinity (IC50, nM) SERT.
Setting [2] is: recombinant HEK-293 membranes, [3H]nisoxetine, read-out: Binding Affinity (IC50, nM) NET.

Sequence of hSERT (P31645 whole entry): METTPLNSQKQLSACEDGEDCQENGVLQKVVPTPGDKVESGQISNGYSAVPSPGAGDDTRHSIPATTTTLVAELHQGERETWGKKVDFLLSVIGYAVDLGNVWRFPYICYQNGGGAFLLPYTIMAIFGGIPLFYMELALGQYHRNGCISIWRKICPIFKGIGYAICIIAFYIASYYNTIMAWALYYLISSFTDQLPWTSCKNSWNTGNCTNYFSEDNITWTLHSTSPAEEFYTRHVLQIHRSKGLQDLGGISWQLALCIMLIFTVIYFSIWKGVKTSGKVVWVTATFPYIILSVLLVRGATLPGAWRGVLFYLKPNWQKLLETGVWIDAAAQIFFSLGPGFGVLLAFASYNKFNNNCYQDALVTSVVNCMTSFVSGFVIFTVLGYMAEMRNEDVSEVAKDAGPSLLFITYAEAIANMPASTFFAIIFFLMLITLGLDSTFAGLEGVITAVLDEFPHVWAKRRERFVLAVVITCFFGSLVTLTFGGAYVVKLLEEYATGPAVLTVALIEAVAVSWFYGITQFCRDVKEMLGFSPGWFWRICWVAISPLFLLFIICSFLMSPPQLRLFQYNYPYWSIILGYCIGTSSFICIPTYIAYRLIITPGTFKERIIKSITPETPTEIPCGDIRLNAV
Sequence of hNET (P23975 whole entry): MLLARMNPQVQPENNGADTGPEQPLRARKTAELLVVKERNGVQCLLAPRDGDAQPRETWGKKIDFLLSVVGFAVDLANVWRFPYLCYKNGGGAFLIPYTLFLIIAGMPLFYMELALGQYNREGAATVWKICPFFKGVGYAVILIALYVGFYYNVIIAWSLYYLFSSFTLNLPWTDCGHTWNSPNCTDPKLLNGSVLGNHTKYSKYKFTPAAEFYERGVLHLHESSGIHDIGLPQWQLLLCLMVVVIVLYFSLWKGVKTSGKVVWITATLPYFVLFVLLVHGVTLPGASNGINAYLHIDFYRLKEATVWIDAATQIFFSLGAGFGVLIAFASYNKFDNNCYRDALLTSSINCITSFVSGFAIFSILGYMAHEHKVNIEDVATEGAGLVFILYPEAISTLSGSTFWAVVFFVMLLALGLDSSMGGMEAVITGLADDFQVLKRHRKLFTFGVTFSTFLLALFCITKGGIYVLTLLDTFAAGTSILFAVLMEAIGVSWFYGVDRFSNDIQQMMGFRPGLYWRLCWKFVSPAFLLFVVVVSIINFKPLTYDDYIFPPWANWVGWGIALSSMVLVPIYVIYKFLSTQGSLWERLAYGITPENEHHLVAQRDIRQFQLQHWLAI
Sequence of hDAT (Q01959 whole entry): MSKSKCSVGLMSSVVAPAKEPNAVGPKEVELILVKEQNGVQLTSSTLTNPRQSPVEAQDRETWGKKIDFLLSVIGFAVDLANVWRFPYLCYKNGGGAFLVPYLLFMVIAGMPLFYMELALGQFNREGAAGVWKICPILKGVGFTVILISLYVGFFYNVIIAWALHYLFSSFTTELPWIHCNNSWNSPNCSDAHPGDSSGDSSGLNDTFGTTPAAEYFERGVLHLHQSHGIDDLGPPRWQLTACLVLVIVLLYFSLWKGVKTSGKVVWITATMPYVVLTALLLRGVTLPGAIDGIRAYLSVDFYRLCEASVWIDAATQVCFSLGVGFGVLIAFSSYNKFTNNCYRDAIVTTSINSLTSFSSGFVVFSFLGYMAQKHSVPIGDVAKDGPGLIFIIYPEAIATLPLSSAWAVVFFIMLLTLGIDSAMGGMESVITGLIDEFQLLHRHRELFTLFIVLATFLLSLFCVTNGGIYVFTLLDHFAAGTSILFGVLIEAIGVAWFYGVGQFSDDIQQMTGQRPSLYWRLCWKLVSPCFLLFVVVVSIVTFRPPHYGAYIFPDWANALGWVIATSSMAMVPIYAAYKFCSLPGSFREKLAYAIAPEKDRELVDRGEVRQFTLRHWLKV

Consider `Oc1ccc2c(c1)CN1CCC2(c2ccc(Cl)cc2)C1` (racemic) [Example 2, rac-5-(4-chlorophenyl)-2,5-methano-2,3,4,5-tetrahydro-1H-benzo[c]azepin-8-ol], for which the concentration for half-maximal inhibition (IC50) on hSERT (setting [1]) came out at 126 nM.
As to `Clc1ccc(C23CCN(CC2)Cc2cc(Oc4cnccn4)ccc23)cc1Cl` [Example 44, 5-(3,4-dichlorophenyl)-2,5-ethano-8-(pyrazin-2-yloxy)-2,3,4,5-tetrahydro-1H-benzo[c]azepine], the figures for the half-inhibitory concentration (IC50) on hDAT, at hNET (setting [2]) and on hSERT (setting [1]) were 33.9 nM, 161 nM and 4.7 nM, respectively.
`CS(=O)(=O)c1ccc(-c2ccc3c(c2)CN2CCC3(c3ccc(Cl)cc3)C2)cc1` (racemic) [Example 9, rac-5-(4-chlorophenyl)-2,5-methano-8-(4-(methylsulfonyl)phenyl)-2,3,4,5-tetrahydro-1H-benzo[c]azepine]: the concentration for half-maximal inhibition (IC50) at hDAT worked out at 435 nM; on hNET (setting [2]) it was 303 nM; at hSERT (setting [1]), 23.5 nM.
`Fc1ccc(C23CCN(Cc4cc(-c5ccc6ncnn6c5)ccc42)C3)cc1Cl` (single isomer, unassigned) [55(−), 8-([1,2,4]triazolo[1,5-a]pyridin-6-yl)-5-(3-chloro-4-fluorophenyl)-2,5-methano-2,3,4,5-tetrahydro-1H-benzo[c]azepine]: the results for the half-maximal inhibitory concentration (IC50) on hDAT, on hNET (setting [2]) and on hSERT (setting [1]) were 35.3 nM, 175 nM and 2.2 nM, respectively.
`Oc1ccc(-c2ccc3c(c2)CN2CCC3(c3ccc(Cl)cc3)C2)nn1` (single isomer, unassigned) [7(+), 6-(5-(4-chlorophenyl)-2,5-methano-2,3,4,5-tetrahydro-1H-benzo[c]azepin-8-yl)pyridazin-3-ol]: the IC50 on hDAT turned out to be 148 nM; at hNET (setting [2]), 674 nM; on hSERT (setting [1]), 62.5 nM.
`FC(F)(F)c1nnc2ccc(-c3ccc4c(c3)CN3CCC4(c4ccc(Cl)cc4)C3)cn12` (racemic) [Example 4, rac-5-(4-chlorophenyl)-2,5-methano-8-(3-(trifluoromethyl)-[1,2,4]triazolo[4,3-a]pyridin-6-yl)-2,3,4,5-tetrahydro-1H-benzo[c]azepine]: the figures for the IC50 on hDAT and on hNET (setting [2]) were 603 nM and 70.5 nM, respectively.
As for `FC(F)Oc1ccc(-c2ccc3c(c2)CN2CCC3(c3ccc(Cl)cc3)C2)nn1` (single isomer, unassigned) [6(+), 5-(4-chlorophenyl)-8(6-(difluoromethoxy)pyridazin-3-yl)-2,5-methano-2,3,4,5-tetrahydro-1H-benzo[c]azepine], the half-inhibitory concentration (IC50) on hDAT came to 1060 nM; on hNET (setting [2]), 1170 nM; at hSERT (setting [1]), 19.3 nM.
Regarding `CCS(=O)(=O)N1CCN(c2ccc3c(c2)CN2CCC3(c3ccc(Cl)cc3)CC2)CC1` [Example 30, 5-(4-chlorophenyl)-8-(4-(ethylsulfonyl)piperazin-1-yl)-2,5-ethano-2,3,4,5-tetrahydro-1H-benzo[c]azepine], the figures for the IC50 at hDAT, on hNET (setting [2]) and at hSERT (setting [1]) were 13.6 nM, 55.8 nM and 10 nM, respectively.
On to `Clc1ccc(C23CCN(CC2)Cc2cc(-c4ccc5ncnn5c4)ccc23)cc1Cl` [Example 37, 8-([1,2,4]triazolo[1,5-a]pyridin-6-yl)-5-(3,4-dichlorophenyl)-2,5-ethano-2,3,4,5-tetrahydro-1H-benzo[c]azepine], for which the concentration for half-maximal inhibition (IC50) at hDAT turned out to be 18.5 nM; at hNET (setting [2]), 119 nM; on hSERT (setting [1]) it was 8.6 nM.
Take `N#Cc1cccc(-c2ccc3c(c2)CN2CCC3(c3ccc(Cl)cc3)CC2)c1` [Example 27, 3-(5-(4-chlorophenyl)-2,5-ethano-2,3,4,5-tetrahydro-1H-benzo[c]azepin-8-yl)benzonitrile]: the IC50 on hDAT stood at 135 nM; at hNET, 355 nM; on hSERT, 3.4 nM.
As for `Clc1ccc(C23CCN(Cc4cc(-c5ccc6ncnn6c5)ccc42)C3)cc1Cl` (single isomer, unassigned) [10(−), 8-([1,2,4]triazolo[1,5-a]pyridin-6-yl)-5-(3,4-dichlorophenyl)-2,5-methano-2,3,4,5-tetrahydro-1H-benzo[c]azepine], the IC50 at hDAT is 37.5 nM; on hNET (setting [2]), 73.7 nM; at hSERT (setting [1]), 5.6 nM.
For the compound `Clc1ccc(C23CCN(CC2)Cc2cc(-c4cnc5ccccc5n4)ccc23)cc1` [Example 21, 5-(4-chlorophenyl)-2,5-ethano-8-(quinoxalin-2-yl)-2,3,4,5-tetrahydro-1H-benzo[c]azepine], the IC50 at hDAT is 353 nM; on hNET (setting [2]) it was 1540 nM; at hSERT (setting [1]), 5.2 nM.
With `Fc1ccc(C23CCN(CC2)Cc2cc(-c4ccc(C(F)(F)F)nn4)ccc23)cc1Cl` [Example 53, 5-(3-chloro-4-fluorophenyl)-2,5-ethano-8-(6-(trifluoromethyl)pyridazin-3-yl)-2,3,4,5-tetrahydro-1H-benzo[c]azepine], the results for the half-maximal inhibitory concentration (IC50) on hDAT, on hNET (setting [2]) and on hSERT (setting [1]) were 120 nM, 345 nM and 2.1 nM, respectively.
For the compound `Cc1nnc2ccc(-c3ccc4c(c3)CN3CCC4(c4ccc(Cl)cc4)CC3)cn12` [Example 20, 5-(4-chlorophenyl)-2,5-ethano-8-(3-methyl-[1,2,4]triazolo[4,3-a]pyridin-6-yl)-2,3,4,5-tetrahydro-1H-benzo[c]azepine], the IC50 at hDAT is 220 nM; on hNET (setting [2]) it was 1020 nM; at hSERT (setting [1]) it was 12.1 nM.
As to `Clc1ccc(C23CCN(CC2)Cc2cc(OCCCc4cccnc4)ccc23)cc1` [Example 36, 5-(4-chlorophenyl)-2,5-ethano-8-(3-(pyridin-3-yl)propoxy)-2,3,4,5-tetrahydro-1H-benzo[c]azepine], the IC50 on hDAT came to 65.7 nM; at hNET (setting [2]) it was 62.3 nM; on hSERT (setting [1]) it was 1.2 nM.
With `COc1ccc2c(c1)CN1CCC2(c2ccc(Cl)cc2)C1` (racemic) [Example 1, rac-5-(4-chlorophenyl)-8-methoxy-2,5-methano-2,3,4,5-tetrahydro-1H-benzo[c]azepine], the values for the half-maximal inhibitory concentration (IC50) at hNET (setting [2]) and at hSERT (setting [1]) were 675 nM and 74.2 nM, respectively.
